Laboratory results reported in patent EP4729516A1, “S[…] DERIVATIVE, INTERMEDIATE, PREPARATION METHOD THEREFOR AND USE THEREOF” (Jiangsu NHWA Pharmaceutical Co., Ltd, priority 2023, dated 2024).
Counter-ions that a name gives are not always drawn.

Legend:
Male SD rats [1] = assay: Hypnotic efficacy: loss of righting reflex (LORR) in rats; format: in vivo; details: for ED50: Rattus norvegicus, tail vein injection over 10 s, sequential method; for induce sleep in rats: time to induce sleep, dose twice the ED50
Method: The sequential method was used to determine the ED50 (median effective dose) for the loss of righting reflex (LORR) by the compounds of the present disclosure in rats: Male SD rats, weighing 200-300 grams, were used. Each compound was dissolved in normal saline and administered via tail vein injection at an initial dose at a constant injection rate over 10 s (one rat per dose). […] This process was repeated, and the results were recorded in the AOT425 Statpm software until the software could calculate the ED50, at which point the experiment was terminated. The hypnotic efficacy of the compounds of the present disclosure was evaluated using ED50 with lower ED50 values indicating stronger efficacy.
Comparison of onset time and duration: Male SD rats, weighing 200-300 grams, were used. Each compound was dissolved in normal saline and administered via tail vein injection at a constant injection rate over 10 s, with 10 rats per group. […] The onset time and duration were recorded.
The onset time refers to the period from the completion of injection to when the rat is placed in a supine position, with the criterion for loss of righting reflex defined as the rat's inability to spontaneously revert to a prone position using its forelimbs and maintained for ≥10 s, which serves as an indicator of compound efficacy; the duration refers to the sustained period during which the rat remains in a state of losing righting reflex. The spontaneous recovery of the righting reflex in the rat is considered the cessation of the efficacy.

Male SD rats [2] = assay: Fluctuations in blood pressure and heart rate after administration; format: in vivo; details: for maximum decrease rates of HR / recovery of HR / maximum increase rates of MAP: compared with dexmedetomidine hydrochloride; for HR decrease Maximum decrease rate / MAP decrease Maximum decrease rate / MAP increase Maximum increase rate: dose as in Test Example 3, within 90 min; for decreases in MAP: no significant decreases greater than the stated value
Method: Male SD rats, weighing 250-300 g, with 4 rats per group, were maintained under general anesthesia by isoflurane inhalation. Femoral artery cannulation was performed, and blood pressure and heart rate were monitored using a Powerlab data acquisition and analysis system. 30 min after the baseline values stabilized, the baseline mean arterial pressure (MAP0) and baseline heart rate (HR0) were measured. The rats were given a solution of each compound in normal saline via tail vein injection (the dose of each compound was the same as in Test Example 3, with rapid intravenous injection over 10 s). Blood pressure and heart rate were continuously recorded for 90 min. MAP^+ (the difference between the maximum mean arterial pressure (MAPmax) and MAP0), MAP^-(the difference between the minimum mean arterial pressure (MAPmin) and MAP0), and HR^- (the difference between the minimum heart rate (HRmin) and HR0) within 90 min were calculated. For calculation, the maximum increase rate of mean arterial pressure = MAP^+/MAP0 × 100%; the maximum decrease rate of mean arterial pressure = MAP^-/MAP0 × 100%; and the maximum decrease rate of heart rate = HR^-/HR0 × 100%.

[3] = loss of righting reflex, male SD rats
[4] = in words, compared with dexmedetomidine hydrochloride, rats
[5] = loss of righting reflex, male SD rats, tail vein injection, dose twice the ED50, 10 rats per group
[6] = isoflurane-anesthetized male SD rats, tail vein injection, dose as in Test Example 3
[7] = isoflurane-anesthetized male SD rats, tail vein injection

SMILES | ED50 (Male SD rats [1]; [3]) | Duration (Male SD rats [1]; [4]) | hypnotic onset time (Male SD rats [1]; [4]) | Duration (Male SD rats [1]; [5]) | Onset time (Male SD rats [1]; [5]) | induce sleep in rats (Male SD rats [1]; rats) | maximum decrease rates of HR (Male SD rats [2]; in words, rats) | recovery of HR (Male SD rats [2]; in words, rats) | HR decrease Duration (Male SD rats [2]; [6]) | MAP increase Duration (Male SD rats [2]; [6]) | HR decrease Maximum decrease rate (Male SD rats [2]; [7]) | MAP decrease Maximum decrease rate (Male SD rats [2]; [7]) | MAP increase Maximum increase rate (Male SD rats [2]; [7]) | decreases in MAP (Male SD rats [2]; rats) | maximum increase rates of MAP (Male SD rats [2]; in words, rats) | change in MAP after administration (Male SD rats [2]; in words, initial increase followed by a decrease, rats) | MAP decrease Duration (Male SD rats [2]; [6]) | sustained reductions in MAP and HR (Male SD rats [2]; rats, recording for 90 min)
CC(c1c[nH]cn1)c1cccc2c1C=CC2 (stereo not drawn) [Compound 8, 4-[1-(1H-Inden-4-yl)ethyl]-1H-imidazole] | 0.0213 mg/kg | significantly shorter | comparable to or slightly longer | 635.80±697.73 S | 161.70±101.69 S | ≤ 5 min | lower | faster | 60 min | 2 min | 24.9±10.8% | 7.1±4.1% | 32.0±10.5% | ≤ 10% | – | – | – | –
CC(c1c[nH]cn1)c1cccc2c1OCC2 (stereo not drawn) [Compound 10, 4-[1-(2,3-Dihydrobenzofuran-7-yl)ethyl]-1H-imidazole] | 0.0088 mg/kg | significantly shorter | comparable to or slightly longer | 508.10±572.65 S | 219.90±93.88 S | ≤ 5 min | lower | faster | 30 min | 2 min | 24.2±5.7 % | 7.9±7.4% | 17.3±5.0 % | ≤ 10% | lower | – | – | –
C[C@H](c1c[nH]cn1)c1cc(F)cc2c1C=CC2 [Compound 11-b, 4-[(1S)-1-(6-fluoro-1H-inden-4-yl)ethyl]-1H-imidazole] | 0.0256 mg/kg | significantly shorter | significantly shorter | 666.00±376.66 S | 45.20±7.38 S | – | lower | faster | 60 min | 2 min | 31.2±3.19% | 6.7±4.02% | 24.1±4.96% | ≤ 10% | lower | – | – | –
CC(c1c[nH]cn1)c1cccc2c1C=CC2(C)C (stereo not drawn) [Compound 17, 4-[1-(1,1-Dimethyl-1H-inden-4-yl)ethyl]-1H-imidazole] | 0.276 mg/kg | significantly shorter | comparable to or slightly longer | 1602.50±681.51 S | 101.80±154.86 S | ≤ 5 min | – | – | – | – | – | – | – | – | – | – | – | –
C[C@H](c1c[nH]cn1)c1cccc2c1CCC2 [Compound 31-b, (S)-4-[1-(2,3-dihydro-1H-inden-4-yl)ethyl]-1H-imidazole] | 0.0268 mg/kg | significantly shorter | comparable to or slightly longer | 1147.78±656.35 S | 100.44±49.16 S | ≤ 5 min | lower | faster | 60 min | 2 min | 30.2±7.7% | 5.3±4.6% | 24.0±11.1% | ≤ 10% | lower | – | – | –
C[C@H](c1c[nH]cn1)c1cc(F)cc2c1C(=O)CC2 [Compound 38-b, (S)-7-(1-(1H-imidazol-4-yl)ethyl)-5-fluoro-2,3-dihydro-1H-inden-1-one] | 0.032 mg/kg | significantly shorter | comparable to or slightly longer | 228.22±158.93 S | 102.44±52.34 S | ≤ 5 min | – | – | – | – | – | – | – | – | – | – | – | –
Cc1cccc([C@H](C)c2cnc[nH]2)c1C [Dexmedetomidine hydrochloride, reference compound] | 0.01 mg/kg | – | – | 3275.10±796.79 S | 77.80±28.56 S | – | – | – | 90 min | 2 min | 33.8±5.3% | 16.5±14.6% | 27.7±4.1% | – | – | biphasic change in MAP | 90 min | 90 min
